Reference: patent US8119624B2, “Fused phenyl amido heterocyclic compounds” (Pfizer Inc., priority 2006, dated 2012)
Where two headings read alike, the source gives them in different places.

Target: T1, Full-length glucokinase (beta cell isoform) (Homo sapiens, UniProt P35557)
T1 construct: Full-length glucokinase (beta cell isoform) was His-tagged at N-terminus; His tag (N); made in house
T1 sequence (P35557 1-465): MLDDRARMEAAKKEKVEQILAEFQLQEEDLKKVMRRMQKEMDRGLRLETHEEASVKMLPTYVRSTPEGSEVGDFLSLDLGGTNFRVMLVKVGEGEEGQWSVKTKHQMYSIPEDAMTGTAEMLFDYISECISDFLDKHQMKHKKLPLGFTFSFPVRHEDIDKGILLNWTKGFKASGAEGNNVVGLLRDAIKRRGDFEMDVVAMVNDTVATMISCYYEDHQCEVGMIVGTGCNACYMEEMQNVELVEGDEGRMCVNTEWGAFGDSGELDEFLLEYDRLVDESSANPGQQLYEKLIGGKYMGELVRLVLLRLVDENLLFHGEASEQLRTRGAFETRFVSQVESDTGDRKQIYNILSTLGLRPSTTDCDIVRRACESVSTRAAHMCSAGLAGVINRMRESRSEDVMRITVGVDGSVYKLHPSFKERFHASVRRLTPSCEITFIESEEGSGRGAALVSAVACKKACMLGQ
Assay: Glucokinase biochemical assay (PK/LDH-coupled, NADH depletion at 340 nm): % activation, EC50, % max activation
Settings: 5 mM glucose; for EC50: read-out: EC50; for % Max Activation / Emax: fitted maximum activation; for Emax: read-out: % Max Activation; for activation at 10 µM: read-out: % Activation at 10 uM
Method: Full-length glucokinase (beta cell isoform) was His-tagged at N-terminus and purified by a Ni column followed by size exclusion chromatography. Glucose was obtained from Calbiochem, and other reagents were from Sigma.
All assays were performed in a Corning 96-well plate using Spectramax PLUS spectrophotometer (Molecular Devices) at room temperature. The final assay volume was 100 uL. The buffer conditions used in this assay were as follows: 50 mM HEPES, 5 mM glucose, 1 mM ATP, 2 mM MgCl2, 0.7mM NADH, 2 mM DTT, 1 Unit/mL PK/LDH, 0.2 mM phosphoenolpyruvate, 25 mM KCl. Tested compound in DMSO solution was added to the buffer and mixed well by a plate shaker for 1 minute. The final concentration of DMSO introduced into the assay was 1%.
Glucokinase was added to the buffer mixture to initiate the reaction in the presence and absence of compound. Reaction was monitored by absorbance at 340nm due to the depletion of NADH. The initial reaction velocity was measured by the slope of a linear time course of 200-900 sec.
The percentage of activation was calculated by the following equation: % Activation=(Va/Vo−1)×100;
wherein each of Va and Vo is defined as the initial reaction velocity in the presence and absence of the tested compound, respectively.
The GK activities were measured as a function of compound concentrations.

[1] = 10 uM compound, % Activation=(Va/Vo−1)×100
[2] = compound at 10 uM, 1 mM ATP, room temperature

SMILES	% Activation at 10 uM [1]	EC50 (GK activation)	% Max Activation	other results
CC1Cc2c(Oc3ccc(S(C)(=O)=O)cc3)cc(C(=O)Nc3ccn(C)n3)cc2O1 (single isomer, unassigned; (+)) [Example 13, (+)4-(4-Methanesulfonyl-phenoxy)-2-methyl-2,3-dihydro-benzofuran-6-carboxylic acid(1-methyl-1H-pyrazol-3-yl)-amide]	182%	1800 nM	196%	–
COCC1Cc2c(Oc3ccc(C(=O)N(C)C)c(F)c3)cc(C(=O)Nc3ccn(C)n3)cc2O1 (single isomer, unassigned; (+)) [Example 207, (+)-4-(4-Dimethylcarbamoyl-3-fluoro-phenoxy)-2-methoxymethyl-2,3-dihydro-benzofuran-6-carboxylic acid (1-methyl-1H-pyrazol-3-yl)-amide]	127%	950 nM	142%	–
COCC1Cc2c(Oc3ccc(C(=O)N4CCC4)cc3)cc(C(=O)Nc3ccn(C)n3)cc2O1 (single isomer, unassigned; (+)) [Example 210, (+)-4-[4-(Azetidine-1-carbonyl)-phenoxy]-2-methoxymethyl-2,3-dihydro-benzofuran-6-carboxylic acid (1-methyl-1H-pyrazol-3-yl)-amide]	130%	850 nM	143%	–
COCC1Cc2c(Oc3ccc(C(=O)N(C)C)cc3)cc(C(=O)Nc3ccn(C)n3)cc2O1 (single isomer, unassigned; (+)) [Example 212, (+)-4-(4-Dimethylcarbamoyl-phenoxy)-2-methoxymethyl-2,3-dihydro-benzofuran-6-carboxylic acid (1-methyl-1H-pyrazol-3-yl)-amide]	111%	2600 nM	144%	–
COCC1(C)Cc2c(Oc3ccc(C(=O)N4CCC4)c(F)c3)cc(C(=O)Nc3ccn(C)n3)cc2O1 (single isomer, unassigned; (+)) [Example 244, (+)-4-[4-(Azetidine-1-carbonyl)-3-fluoro-phenoxy]-2-methoxymethyl-2-methyl-2,3-dihydro-benzofuran-6-carboxylic acid (1-methyl-1H-pyrazol-3-yl)-amide]	287%	210 nM	234%	–
Cc1ccc(NC(=O)c2cc(Oc3ccc(S(=O)(=O)C4CC4)c(F)c3)c3c(c2)OC(C)(CO)C3)nc1 (single isomer, unassigned; (+)) [Example 401, (+)-4-(4-Cyclopropanesulfonyl-3-fluoro-phenoxy)-2-hydroxymethyl-2-methyl-2,3-dihydro-benzofuran-6-carboxylic acid(5-methyl-pyridin-2-yl)-amide]	–	–	–	EC50 (1 mM ATP, room temperature): 290 nM; activation at 10 µM [2]: 131%; Emax (1 mM ATP): 139%
CC1Cc2c(Oc3ccc(S(C)(=O)=O)cc3)cc(C(=O)Nc3ccn(C)n3)cc2O1 (single isomer, unassigned; (-)) [Example 12, (−)-4-(4-Methanesulfonyl-phenoxy)-2-methyl-2,3-dihydro-benzofuran-6-carboxylic acid(1-methyl-1H-pyrazol-3-yl)-amide]	162%	3000 nM	195%	–
COCC1Cc2c(Oc3ccc(C(=O)N(C)C)c(F)c3)cc(C(=O)Nc3ccn(C)n3)cc2O1 (single isomer, unassigned; (-)) [Example 206, (−)-4-(4-Dimethylcarbamoyl-3-fluoro-phenoxy)-2-methoxymethyl-2,3-dihydro-benzofuran-6-carboxylic acid (1-methyl-1H-pyrazol-3-yl)-amide]	91.3%	270 nM	102%	–
COCC1Cc2c(Oc3ccc(C(=O)N4CCC4)cc3)cc(C(=O)Nc3ccn(C)n3)cc2O1 (single isomer, unassigned; (-)) [Example 209, (−)-4-[4-(Azetidine-1-carbonyl)-phenoxy]-2-methoxymethyl-2,3-dihydro-benzofuran-6-carboxylic acid (1-methyl-1H-pyrazol-3-yl)-amide]	87%	380 nM	96%	–
COCC1Cc2c(Oc3ccc(C(=O)N(C)C)cc3)cc(C(=O)Nc3ccn(C)n3)cc2O1 (single isomer, unassigned; (-)) [Example 213, (−)-4-(4-Dimethylcarbamoyl-phenoxy)-2-methoxymethyl-2,3-dihydro-benzofuran-6-carboxylic acid (1-methyl-1H-pyrazol-3-yl)-amide]	83.1%	890 nM	113%	–
COCC1(C)Cc2c(Oc3ccc(C(=O)N4CCC4)c(F)c3)cc(C(=O)Nc3ccn(C)n3)cc2O1 (single isomer, unassigned; (-)) [Example 243, (−)-4-[4-(Azetidine-1-carbonyl)-3-fluoro-phenoxy]-2-methoxymethyl-2-methyl-2,3-dihydro-benzofuran-6-carboxylic acid (1-methyl-1H-pyrazol-3-yl)-amide]	–	41 nM	–	activation at 10 µM [1]: 275%; Emax: 218%
Cc1ccc(NC(=O)c2cc(Oc3ccc(S(=O)(=O)C4CC4)c(F)c3)c3c(c2)OC(C)(CO)C3)nc1 (single isomer, unassigned; (-)) [Example 402, (−)-4-(4-Cyclopropanesulfonyl-3-fluoro-phenoxy)-2-hydroxymethyl-2-methyl-2,3-dihydro-benzofuran-6-carboxylic acid(5-methyl-pyridin-2-yl)-amide]	–	–	–	% Activation at 10 uM [2]: 19.9%

The next lines start with results.

% Activation at 10 uM [1]	EC50 (GK activation)	% Max Activation	SMILES	other results
222%	490 nM	225%	COCC1(C)Cc2c(Oc3ccc(S(=O)(=O)C4CC4)cc3)cc(C(=O)Nc3ccn(C)n3)cc2O1 (single isomer, unassigned; (+)) [Example 248, (+)-4-(4-Cyclopropanesulfonyl-phenoxy)-2-methoxymethyl-2-methyl-2,3-dihydro-benzofuran-6-carboxylic acid (1-methyl-1H-pyrazol-3-yl)-amide]	–
276%	86 nM	–	COCC1(C)Cc2c(Oc3ccc(S(=O)(=O)C4CC4)cc3)cc(C(=O)Nc3cnn(C)n3)cc2O1 (single isomer, unassigned; (+)) [Example 249, (+)-4-(4-Cyclopropanesulfonyl-phenoxy)-2-methoxymethyl-2-methyl-2,3-dihydro-benzofuran-6-carboxylic acid (2-methyl-2H-[1,2,3]triazol-4-yl)-amide]	Emax: 262%
227%	420 nM	246%	COCC1(C)Cc2c(Oc3ccc(S(=O)(=O)C4CC4)cc3)cc(C(=O)Nc3cnn(C)n3)cc2O1 (single isomer, unassigned; (+)) [Example 250, (+)-4-(4-Cyclopropanesulfonyl-phenoxy)-2-methoxymethyl-2-methyl-2,3-dihydro-benzofuran-6-carboxylic acid (2-methyl-2H-[1,2,3]triazol-4-yl)-amide]	–
252%	83 nM	254%	COCC1(C)Cc2c(Oc3ccc(S(=O)(=O)C4CC4)cc3)cc(C(=O)Nc3ccn(C)n3)cc2O1 (single isomer, unassigned; (-)) [Example 247, (−)-4-(4-Cyclopropanesulfonyl-phenoxy)-2-methoxymethyl-2-methyl-2,3-dihydro-benzofuran-6-carboxylic acid (1-methyl-1H-pyrazol-3-yl)-amide]	–
